Experimental data published in ChEMBL document CHEMBL4699412, “Understanding the mechanism of action of pyrrolo[3,2-b]quinoxaline-derivatives as kinase inhibitors” (RSC Med Chem, 2020).

Tests used:
cells [1] = details: Homo sapiens, MEC1, 72 h
JeKo-1 = assay: cells; details: Homo sapiens, JeKo-1, 72 h
Ephrin type-B receptor 4 = target: T1, Ephrin type-B receptor 4 (Homo sapiens, UniProt P54760); assay: Inhibition of full-length human EPHB4 expressed in MEF cells assessed as autophosphorylation by sandwitch-ELISA; assay type: cell-based
T1 sequence (P54760 whole entry): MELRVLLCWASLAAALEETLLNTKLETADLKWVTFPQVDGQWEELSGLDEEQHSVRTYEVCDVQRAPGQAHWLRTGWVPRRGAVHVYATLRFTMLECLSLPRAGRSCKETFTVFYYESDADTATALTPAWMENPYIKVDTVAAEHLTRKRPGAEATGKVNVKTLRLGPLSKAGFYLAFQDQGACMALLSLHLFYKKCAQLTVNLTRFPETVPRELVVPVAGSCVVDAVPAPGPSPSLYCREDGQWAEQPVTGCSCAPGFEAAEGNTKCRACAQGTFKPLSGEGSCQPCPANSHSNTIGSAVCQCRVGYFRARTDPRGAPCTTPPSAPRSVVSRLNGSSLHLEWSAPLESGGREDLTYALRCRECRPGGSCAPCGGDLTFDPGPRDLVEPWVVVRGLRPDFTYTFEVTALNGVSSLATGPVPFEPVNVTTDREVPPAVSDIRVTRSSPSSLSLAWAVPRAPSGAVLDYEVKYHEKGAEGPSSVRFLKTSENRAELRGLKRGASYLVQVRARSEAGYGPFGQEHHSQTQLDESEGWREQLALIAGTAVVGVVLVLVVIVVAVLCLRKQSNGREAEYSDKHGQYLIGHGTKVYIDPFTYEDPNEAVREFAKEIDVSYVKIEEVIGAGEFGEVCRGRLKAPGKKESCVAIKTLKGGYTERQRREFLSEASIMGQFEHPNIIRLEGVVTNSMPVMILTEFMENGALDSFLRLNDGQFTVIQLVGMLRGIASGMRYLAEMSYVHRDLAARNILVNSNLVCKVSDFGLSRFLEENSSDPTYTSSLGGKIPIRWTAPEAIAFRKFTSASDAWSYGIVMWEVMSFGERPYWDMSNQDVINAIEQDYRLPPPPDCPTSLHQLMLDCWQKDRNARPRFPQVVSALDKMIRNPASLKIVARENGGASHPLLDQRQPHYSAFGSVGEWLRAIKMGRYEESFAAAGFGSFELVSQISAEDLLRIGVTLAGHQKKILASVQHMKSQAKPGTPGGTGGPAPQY

cells [2] = details: Homo sapiens, Ri-1, 72 h
Maver1 = assay: cells; details: Homo sapiens, Maver1, 72 h
[3] = target: T2, Ephrin type-A receptor 3 (Homo sapiens) (UniProt P29320); assay: Binding affinity to EPHA3 (unknown origin) assessed as increase in change in melting temperature by differential scanning fluorimetric analysis
T2 sequence (whole entry): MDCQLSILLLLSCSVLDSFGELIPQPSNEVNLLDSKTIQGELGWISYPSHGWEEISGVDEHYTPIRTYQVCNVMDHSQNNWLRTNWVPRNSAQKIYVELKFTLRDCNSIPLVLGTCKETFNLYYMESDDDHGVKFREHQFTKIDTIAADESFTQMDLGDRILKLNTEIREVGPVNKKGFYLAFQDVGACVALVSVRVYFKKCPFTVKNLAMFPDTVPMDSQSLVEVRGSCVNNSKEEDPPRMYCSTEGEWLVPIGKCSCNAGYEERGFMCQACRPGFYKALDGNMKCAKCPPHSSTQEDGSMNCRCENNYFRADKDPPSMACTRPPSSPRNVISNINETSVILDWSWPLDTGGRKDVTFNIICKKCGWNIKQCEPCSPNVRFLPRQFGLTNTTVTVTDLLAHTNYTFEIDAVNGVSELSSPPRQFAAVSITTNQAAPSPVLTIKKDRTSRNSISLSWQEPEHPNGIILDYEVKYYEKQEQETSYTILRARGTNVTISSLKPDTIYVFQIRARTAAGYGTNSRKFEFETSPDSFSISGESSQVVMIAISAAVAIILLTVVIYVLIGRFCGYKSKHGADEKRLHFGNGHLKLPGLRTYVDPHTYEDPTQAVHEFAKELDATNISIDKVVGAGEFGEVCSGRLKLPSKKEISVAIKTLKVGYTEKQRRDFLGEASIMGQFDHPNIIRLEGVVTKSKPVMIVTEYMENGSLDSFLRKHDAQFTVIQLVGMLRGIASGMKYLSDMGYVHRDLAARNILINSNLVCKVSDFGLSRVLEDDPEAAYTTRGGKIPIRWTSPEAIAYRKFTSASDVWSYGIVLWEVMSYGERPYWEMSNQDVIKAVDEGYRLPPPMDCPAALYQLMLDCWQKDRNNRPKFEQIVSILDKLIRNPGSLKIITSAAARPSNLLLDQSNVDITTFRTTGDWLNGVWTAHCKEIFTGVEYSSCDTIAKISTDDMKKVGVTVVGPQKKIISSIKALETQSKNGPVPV

[4] = Antitumor activity against human Ri1 cells xenografted in NOD-SCID mouse assessed as fold change in tumor size at 100 mg/kg, ip administered for 2 weeks by caliper method relative to control; assay type: functional, Ri-1
cells [5] = details: Homo sapiens, PCL12, 72 h
cells [6] = details: Homo sapiens, SU-DHL-1, 72 h
[7] = Toxicity in NOD-SCID nude mouse xenografted with human Ri1 cells assessed as body weight loss at 100 mg/kg, ip once every 5 days; details: in vivo, 360 h
[8] = Toxicity in NOD-SCID nude mouse xenografted with human Ri1 cells assessed as body weight loss at 100 mg/kg, ip; assay type: organism-based; details: in vivo
HUVEC [9] = assay: Antiangiogenic activity against HUVEC cells assessed as reduction in tube formation incubated for 15 hrs by matrigel-based assay relative to control; assay type: functional, Homo sapiens
HUVEC [10] = assay: Antiangiogenic activity against HUVEC cells assessed as reduction in total loops incubated for 15 hrs by matrigel-based assay relative to control; assay type: functional, Homo sapiens
[11] = target: Tyrosine-protein kinase BTK (Homo sapiens) (UniProt Q06187); assay: Inhibition of wild-type human full length BTK (M1 to S659 residues) expressed in mammalian expression system at 1 uM by Kinomescan method relative to control
Tyrosine-protein kinase BTK (Homo sapiens), sequence (Q06187 whole entry, the tested form may be a part): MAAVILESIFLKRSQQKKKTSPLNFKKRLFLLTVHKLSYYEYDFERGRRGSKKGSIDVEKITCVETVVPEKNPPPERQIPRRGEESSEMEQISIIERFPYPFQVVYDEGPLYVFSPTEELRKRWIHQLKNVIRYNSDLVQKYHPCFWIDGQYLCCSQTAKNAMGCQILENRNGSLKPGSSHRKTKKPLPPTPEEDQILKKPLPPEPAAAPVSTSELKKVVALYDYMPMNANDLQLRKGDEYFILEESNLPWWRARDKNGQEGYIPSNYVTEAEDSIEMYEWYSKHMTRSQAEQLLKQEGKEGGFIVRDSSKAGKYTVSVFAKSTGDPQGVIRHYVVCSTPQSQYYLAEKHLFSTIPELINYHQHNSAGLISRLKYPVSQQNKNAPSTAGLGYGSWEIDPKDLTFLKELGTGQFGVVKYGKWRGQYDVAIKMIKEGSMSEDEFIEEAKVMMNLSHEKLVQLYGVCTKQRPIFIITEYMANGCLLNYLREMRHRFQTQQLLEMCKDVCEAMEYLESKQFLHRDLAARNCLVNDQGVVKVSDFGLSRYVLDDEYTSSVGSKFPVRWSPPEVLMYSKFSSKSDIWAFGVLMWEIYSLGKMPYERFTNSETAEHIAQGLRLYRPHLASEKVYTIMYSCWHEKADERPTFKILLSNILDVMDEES

HUVEC [12] = assay: Antiangiogenic activity against HUVEC cells assessed as reduction in total branching points incubated for 15 hrs by matrigel-based assay relative to control; assay type: functional, Homo sapiens
[13] = Toxicity in NOD-SCID nude mouse xenografted with human Ri1 cells assessed as swelling surrounding the area of injection at 100 mg/kg, ip; assay type: organism-based; details: in vivo
[14] = target: Tyrosine-protein kinase Yes (Homo sapiens) (UniProt P07947); assay: Inhibition of wild-type human partial length YES (T257 to L543 residues) expressed in bacterial expression system at 1 uM by Kinomescan method relative to control
Tyrosine-protein kinase Yes (Homo sapiens), sequence (P07947 2-543 limits assumed): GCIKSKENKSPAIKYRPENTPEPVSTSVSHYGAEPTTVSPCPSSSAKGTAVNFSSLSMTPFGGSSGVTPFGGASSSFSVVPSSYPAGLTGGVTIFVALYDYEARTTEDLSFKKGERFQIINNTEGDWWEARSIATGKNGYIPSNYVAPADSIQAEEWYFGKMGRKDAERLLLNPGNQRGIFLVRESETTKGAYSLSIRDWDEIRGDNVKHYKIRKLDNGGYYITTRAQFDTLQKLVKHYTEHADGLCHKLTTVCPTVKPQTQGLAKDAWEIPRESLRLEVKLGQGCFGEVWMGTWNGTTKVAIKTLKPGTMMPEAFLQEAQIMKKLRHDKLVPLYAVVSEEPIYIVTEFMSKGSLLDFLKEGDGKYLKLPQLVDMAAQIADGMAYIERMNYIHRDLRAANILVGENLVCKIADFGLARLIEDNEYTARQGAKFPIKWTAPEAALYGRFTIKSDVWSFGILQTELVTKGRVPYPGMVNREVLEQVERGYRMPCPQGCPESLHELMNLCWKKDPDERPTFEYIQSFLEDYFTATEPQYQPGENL

[15] = target: Tyrosine-protein kinase Lyn (Homo sapiens) (UniProt P07948); assay: Inhibition of wild-type human partial length LYN (C219 to Q511 residues) expressed in bacterial expression system at 1 uM by Kinomescan method relative to control
Tyrosine-protein kinase Lyn (Homo sapiens), sequence (P07948 2-512 limits assumed): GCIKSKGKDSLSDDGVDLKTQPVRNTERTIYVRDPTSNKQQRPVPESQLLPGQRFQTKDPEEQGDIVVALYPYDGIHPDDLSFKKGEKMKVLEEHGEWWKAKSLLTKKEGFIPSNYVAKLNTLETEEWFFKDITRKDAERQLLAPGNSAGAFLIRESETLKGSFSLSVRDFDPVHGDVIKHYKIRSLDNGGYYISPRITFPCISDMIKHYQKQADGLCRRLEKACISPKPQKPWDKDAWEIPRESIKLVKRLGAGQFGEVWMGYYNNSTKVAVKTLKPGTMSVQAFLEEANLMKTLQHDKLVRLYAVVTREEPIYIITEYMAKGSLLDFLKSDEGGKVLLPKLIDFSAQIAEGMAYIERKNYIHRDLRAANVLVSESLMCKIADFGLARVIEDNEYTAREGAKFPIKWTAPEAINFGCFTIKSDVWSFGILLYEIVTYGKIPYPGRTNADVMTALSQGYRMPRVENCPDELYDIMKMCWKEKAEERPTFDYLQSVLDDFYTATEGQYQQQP

[16] = target: Tyrosine-protein kinase CSK (Homo sapiens) (UniProt P41240); assay: Inhibition of wild-type human full length CSK (M1 to L450 residues) expressed in bacterial expression system at 1 uM by Kinomescan method relative to control
Tyrosine-protein kinase CSK (Homo sapiens), sequence (P41240 2-450 limits assumed): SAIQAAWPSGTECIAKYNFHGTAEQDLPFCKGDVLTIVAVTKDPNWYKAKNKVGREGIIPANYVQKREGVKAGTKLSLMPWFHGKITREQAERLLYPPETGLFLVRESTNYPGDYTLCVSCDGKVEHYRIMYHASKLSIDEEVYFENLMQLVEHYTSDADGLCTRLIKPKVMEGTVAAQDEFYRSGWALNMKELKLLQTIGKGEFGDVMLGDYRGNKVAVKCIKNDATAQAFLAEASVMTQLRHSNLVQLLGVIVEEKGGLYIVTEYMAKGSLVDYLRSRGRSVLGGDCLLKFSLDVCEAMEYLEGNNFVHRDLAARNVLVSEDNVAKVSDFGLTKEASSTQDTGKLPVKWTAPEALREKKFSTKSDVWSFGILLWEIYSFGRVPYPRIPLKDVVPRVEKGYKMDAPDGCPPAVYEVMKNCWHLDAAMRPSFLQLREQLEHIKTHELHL

IC50 (cells [1]) [µM]	IC50 (JeKo-1) [µM]	EC50 (Ephrin type-B receptor 4) [µM]	IC50 (cells [2]) [µM]	IC50 (Maver1) [µM]	ΔTm [3] [°C]	IC50 (cells [5]) [µM]	IC50 (cells [6]) [µM]	% control [11] [%]	% control [14] [%]	% control [15] [%]	% control [16] [%]	SMILES	fold change (FC) [4]	Activity [7]	Activity [8]	inhibition (INH) (HUVEC [9]) [%]	inhibition (INH) (HUVEC [10]) [%]	inhibition (INH) (HUVEC [12]) [%]	Activity [13]
0.25	0.25	1.1	0.25	0.25	19.3	0.25	0.25					CC(C)(C)c1cc(NC(=O)Nc2ccc(-n3c(N)c(C(N)=O)c4nc5ccccc5nc43)cc2)n(-c2ccc3ncccc3c2)n1	3	Non-Toxic					
0.6	0.6	0.36	0.6	0.6	17.3	0.6	0.6	0.95	9.6	0.85	0.9	Cc1ccc(-n2nc(C(C)(C)C)cc2NC(=O)Nc2ccc(-n3c(N)c(C(N)=O)c4nc5ccccc5nc43)cc2)cc1			Toxic	65	100	90	Toxic
								3.3	1.9	0.5	0.65	Cc1ccc(-n2nc(C(C)(C)C)cc2NC(=O)Nc2ccc(-n3c(N)c(C(N)=O)c4nc5ccc(NCCCN)cc5nc43)cc2)cc1							
